This is an account of results in ChEMBL document CHEMBL1131927, “The synthesis and evaluation of temperature sensitive tubulin toxins” (Bioorg Med Chem Lett, 1999).

By IC50 is commonly meant the concentration needed to halve the response being measured. Low values mean inhibition by little substance, high ones a need for much substance. By GI50 is commonly meant the concentration at which growth is held to half of that of the control. A high value points to lower sensitivity of the cells.

Type in all cases: functional
Test [1] has as its target T1, Tubulin (Bos taurus, UniProt Q6B856+Q862L2+Q862F3). Nature of the test: Inhibition of tubulin polymerization activity using homogenous bovine brain tubulin at 30 degree C.
Test [2] is described as follows: Selectivity ratio expressed as temperature dependence at 45 Degree C to that of 30 Degree C in bovine brain tubulin.
Test [3] deals with T1, Tubulin. Nature of the test: Inhibition of tubulin polymerization activity using homogenous bovine brain tubulin at 37 degree C.
In test [4] the target is T1, Tubulin. Nature of the test: Inhibition of tubulin polymerization activity using homogenous bovine brain tubulin at 45 degree C.
The test system of test [5] is PC-3. Nature of the test: In vitro growth inhibitory activity against human neoplastic PC3 cell line.
In test [6] the test system is NCI-H520. Nature of the test: In vitro growth inhibitory activity against human neoplastic NCI-H520 cell line.
Test [7] deals with MCF7. Nature of the test: In vitro growth inhibitory activity against human neoplastic MCF-7 cell line.

Bounds are passed on as bounds.

On to `COc1cc2c(c(OC)c1OC)C(c1cccc(Br)c(=O)c1)CC2` (centres undefined), for which the results for the IC50 in test [1], in test [3] and in test [4] were 32 µM, 28.1 µM and 22 µM, respectively. Further, the Selectivity in test [2] stood at 1.45.
The matching figures for `CCOc1cccc(C2CCc3cc(OC)c(OC)c(OC)c32)cc1=O` (centres undefined): 26.2 µM, 18.2 µM, 18 µM and 1.7.
With `COc1cc2c(c(OC)c1OC)C(c1cccc(N)c(=O)c1)CC2` (centres undefined), the concentration for half-maximal inhibition (IC50) was determined as 29.5 µM in test [1], 23.6 µM in test [3] and 23.6 µM in test [4]. In test [2], the Selectivity came out at 1.25.
For the molecule `COc1ccc(C2CCc3cc(OC)c(OC)c(OC)c32)cc1O` (centres undefined), the results for the IC50 in test [1], in test [3] and in test [4] were 11.8 µM, 10.9 µM and 10.9 µM, respectively. The concentration for 50% growth inhibition (GI50) worked out at 0.5 µM in test [5], 0.1 µM in test [6] and 10 µM in test [7]. Further, the Selectivity in test [2] was determined as 1.1.
For the molecule `CNc1cccc(C2CCc3cc(OC)c(OC)c(OC)c32)cc1=O` (centres undefined), the IC50 in test [1] was 30.6 µM; in test [3], 23.5 µM. Further, the Selectivity in test [2] was 1.3.
With `COc1cc2c(c(OC)c1OC)C(c1cccc(OC)c(=O)c1)CC2` (centres undefined), the figures for the IC50 in test [1], in test [3] and in test [4] were 108 µM, 19 µM and 19 µM, respectively. Moreover, the GI50 in test [5] was 5.2 µM; in test [6] it was 5.4 µM; in test [7] it was 75 µM. Besides, the Selectivity in test [2] was 5.7.
In the case of `COc1cc(C2CCc3cc(OC)c(OC)c(OC)c32)ccc1O` (centres undefined), the IC50 in test [1], in test [3] and in test [4] was 46.4 µM each time. Further, the GI50 in test [5], in test [6] and in test [7] was greater than 100 µM in each case. For the same molecule, the Selectivity in test [2] worked out at 0.
Take `COc1cc2c(c(OC)c1OC)-c1ccc(OC)c(=O)cc1[C@@H](NC(C)=O)CC2` [COLCHICINE]: the 50% growth inhibitory concentration (GI50) in test [5], in test [6] and in test [7] was less than 0.05 µM in each case.
